Values of other authors in patent US6749871B2, “Compositions for treating symptoms of urogenital/urological disorders” (Prater Herbs, L.L.C., priority 2002, dated 2004).

Test system: benign prostatic hyperplasia
Details: three-year clinical evaluation

Question: With `CC(C)(C)NC(=O)[C@H]1CC[C@H]2[C@@H]3CC[C@H]4NC(=O)C=C[C@]4(C)[C@H]3CC[C@]12C` [Finasteride] as the compound, how does the “Improvement in urinary flow rate” value read?
Answer: 2.3 ml per second

Question: What about the “Participants with side effects such as decreased libido and impotence” value of the same compound?
Answer: about four to five percent

Question: What about the “Reduction in prostatic volume” value of the same compound?
Answer: about 27%

Question: And the “Reduction in symptom score” value?
Answer: 3.6 points
